Read-outs that look alike come from different tables or passages of the source.
What was measured:
CAIII = molecular target: T1, CAIII (Homo sapiens, UniProt P07451); experiment: Fluorescent thermal shift assay (FTSA), CAIII; type: binding; conditions: FTSA, pH 7.0, 37 °C; read-out: Observed Dissociation Constant (Kd_obs), CAIII
T1 construct: made in house; host or cells: E. coli
Protocol: (§1) Human CA isozymes were expressed in E. coli (CAI, II, III, IV, VA, VB, VII, XII, XIII, XIV) or mammalian cells (CAVI and CAIX), chromatographically purified following the published protocols [47], and stored at −80 °C. The protein concentration was determined by UV absorption at 280 nm using Beer–Lambert law.
(§2) The QIAGEN Rotor-Gene Q was used to carry out the experiments, with a blue channel used for excitation (365 nm) and detection (460 nm). FTSA in this case relies on an extrinsic probe, 8-anilino-1-naphthalenesulfonate (ANS), to detect the fluorescence increase during protein denaturation, from which protein melting temperature (Tm) can be determined. […] The observed affinity of ligands for CAs was determined by plotting the Tm as a function of ligand concentration and then fitting a curve as described previously [48]. […] Samples were heated from 25 °C to 99 °C at the speed of 1 °C/min.
(§3) The intrinsic thermodynamic parameters were calculated as described in [40]. The intrinsic reaction of inhibitor binding to CA is shown in Equation (1). […] It is known that CA proteins bind sulfonamides only when water molecules are coordinated to the Zn(II) ion, and sulfonamides only bind to CA proteins when their amino group is deprotonated (confirmed by neutron crystallography [53, 54, 55]):(1) CA Zn^II−H2O+RSO2NH^−⇄ CA Zn^II−NH SO2R+H2O
(§4) When calculating Kd_int values, these protein and ligand fractions from Equation (1) have to be accounted for (Equations (2) and (3)). The intrinsic dissociation constant is calculated by multiplying Kd_obs value by the corresponding fractions of protein and ligand (Equation (4)). (2) fRSO2NH^−=10^pH−pKa_RSO2NH2/1+10^pH−pKa_RSO2NH2 (3) fCAZnH2O=1−10^pH−pKa_CAZnH2O/1+10^pH−pKa_CAZnH2O (4) Kd_int=Kd_obs×fRSO2NH^−×fCAZnH2O (5) ΔGint0=RTlnKd_int
(§5) The intrinsic standard Gibbs energy changes upon binding were calculated using Equation (5). Here, R—universal ideal gas constant (8.3144 J/mol·K), T—absolute temperature (310.15 K).

CAXIII = CAXIII (Homo sapiens, UniProt Q8N1Q1); experiment: biochemical; conditions: Observed Dissociation Constant (Kd_obs), FTSA, pH 7.0, 37 °C;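 further: recombinant human CAXIII melting temperature tracked by ANS fluorescence in thermal shift assay, Tm fitted against ligand concentration, intrinsic value corrects Kd for deprotonated sulfonamide and Zn-bound water fractions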
Sequence of CAXIII (Q8N1Q1 whole entry): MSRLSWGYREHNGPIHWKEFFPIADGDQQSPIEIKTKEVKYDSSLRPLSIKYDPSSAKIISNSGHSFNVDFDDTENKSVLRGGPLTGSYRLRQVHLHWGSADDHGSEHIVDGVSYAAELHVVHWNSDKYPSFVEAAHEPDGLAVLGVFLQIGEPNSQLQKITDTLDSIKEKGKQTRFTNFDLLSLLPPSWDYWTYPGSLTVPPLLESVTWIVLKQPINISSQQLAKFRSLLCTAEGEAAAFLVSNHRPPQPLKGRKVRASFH
Protocol: as §1, §2
(§6) The intrinsic thermodynamic parameters were calculated as described in [40]. The intrinsic reaction of inhibitor binding to CA is shown in Equation (1).
as §4, §5

CAVI = molecular target: T2, CAVI (Homo sapiens, UniProt P23280); experiment: Fluorescent thermal shift assay (FTSA), CAVI; type: binding; conditions: FTSA, pH 7.0, 37 °C; read-out: Observed Dissociation Constant (Kd_obs), CAVI;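 further: human CAVI expressed in mammalian cells, ANS fluorescence tracked during thermal unfolding, melting temperature fitted against ligand concentration, intrinsic values corrected for deprotonated sulfonamide and Zn-bound water fractions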
T2 construct: made in house
T2 sequence (P23280 21-290 limits assumed): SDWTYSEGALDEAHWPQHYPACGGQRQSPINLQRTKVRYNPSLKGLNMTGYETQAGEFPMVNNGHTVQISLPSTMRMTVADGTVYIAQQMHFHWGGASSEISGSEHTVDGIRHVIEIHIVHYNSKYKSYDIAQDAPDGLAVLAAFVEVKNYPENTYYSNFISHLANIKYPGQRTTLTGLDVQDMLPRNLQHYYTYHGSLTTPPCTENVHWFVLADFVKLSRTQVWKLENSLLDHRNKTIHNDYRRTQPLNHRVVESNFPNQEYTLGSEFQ
Protocol: as §1, §2, §3, §4, §5

CAVA = molecular target: T3, CAVA (Homo sapiens, UniProt P35218); experiment: Fluorescent thermal shift assay (FTSA), CAVA; type: binding; conditions: FTSA, pH 7.0, 37 °C; read-out: Observed Dissociation Constant (Kd_obs), CAVA
T3 construct: made in house; host or cells: E. coli
T3 sequence (P35218 39-305): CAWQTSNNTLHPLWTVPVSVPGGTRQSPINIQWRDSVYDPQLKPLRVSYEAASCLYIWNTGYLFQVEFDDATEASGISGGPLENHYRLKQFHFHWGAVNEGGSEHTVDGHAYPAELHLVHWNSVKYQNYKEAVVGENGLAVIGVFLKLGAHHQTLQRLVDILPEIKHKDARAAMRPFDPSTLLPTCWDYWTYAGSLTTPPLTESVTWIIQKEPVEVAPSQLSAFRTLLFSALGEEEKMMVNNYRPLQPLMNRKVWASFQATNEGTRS
Protocol: as §1, §2, §3, §4, §5

CAIV = molecular target: T4, CAIV (Homo sapiens, UniProt P22748); experiment: Fluorescent thermal shift assay (FTSA), CAIV; type: binding; conditions: FTSA, pH 7.0, 37 °C; read-out: Observed Dissociation Constant (Kd_obs), CAIV;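 further: recombinant human enzyme, thermal denaturation followed by ANS fluorescence, melting temperature versus ligand concentration fitted for Kd_obs, intrinsic value corrected for deprotonated sulfonamide and Zn-bound water fractions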
T4 construct: made in house; host or cells: E. coli
T4 sequence (P22748 19-312): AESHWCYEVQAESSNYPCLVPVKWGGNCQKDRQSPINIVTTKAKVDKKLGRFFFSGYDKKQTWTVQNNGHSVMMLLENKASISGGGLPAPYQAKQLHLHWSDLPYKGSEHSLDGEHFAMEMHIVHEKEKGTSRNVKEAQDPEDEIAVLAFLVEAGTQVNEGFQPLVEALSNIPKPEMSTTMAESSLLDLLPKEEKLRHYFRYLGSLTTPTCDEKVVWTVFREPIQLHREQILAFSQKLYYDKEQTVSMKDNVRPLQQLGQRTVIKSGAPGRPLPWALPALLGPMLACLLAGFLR
Protocol: as §1, §2, §3, §4, §5

CAIX = molecular target: T5, CAIX (Homo sapiens, UniProt Q16790); experiment: biochemical; type: binding; conditions: FTSA, pH 7.0, 37 °C; read-out: Observed Dissociation Constant (Kd_obs), CAIX
T5 construct: made in house

CAVII = molecular target: T6, CAVII (Homo sapiens, UniProt P43166); experiment: Fluorescent thermal shift assay (FTSA), CAVII; type: binding; conditions: FTSA, pH 7.0, 37 °C
T6 construct: made in house; host or cells: E. coli
T6 sequence (P43166 whole entry): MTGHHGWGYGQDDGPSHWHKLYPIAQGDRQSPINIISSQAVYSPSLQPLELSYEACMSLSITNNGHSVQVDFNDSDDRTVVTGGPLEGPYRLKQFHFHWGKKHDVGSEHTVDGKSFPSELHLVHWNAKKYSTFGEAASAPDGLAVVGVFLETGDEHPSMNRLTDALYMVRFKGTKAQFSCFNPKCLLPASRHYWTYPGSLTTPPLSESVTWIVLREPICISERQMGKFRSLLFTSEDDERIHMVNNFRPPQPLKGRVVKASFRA
Protocol: as §1, §2, §3, §4, §5

CAII = molecular target: T7, CAII (Homo sapiens, UniProt P00918); experiment: biochemical; type: binding; conditions: FTSA, pH 7.0, 37 °C; read-out: Observed Dissociation Constant (Kd_obs), CAII
T7 construct: made in house; host or cells: E. coli
Protocol: as §1, §2, §6, §4, §5

CAVB = molecular target: T8, CAVB (Homo sapiens, UniProt Q9Y2D0); experiment: Fluorescent thermal shift assay (FTSA), CAVB; type: binding; conditions: FTSA, pH 7.0, 37 °C; read-out: Observed Dissociation Constant (Kd_obs), CAVB
T8 construct: made in house; host or cells: E. coli
T8 sequence (Q9Y2D0 34-317): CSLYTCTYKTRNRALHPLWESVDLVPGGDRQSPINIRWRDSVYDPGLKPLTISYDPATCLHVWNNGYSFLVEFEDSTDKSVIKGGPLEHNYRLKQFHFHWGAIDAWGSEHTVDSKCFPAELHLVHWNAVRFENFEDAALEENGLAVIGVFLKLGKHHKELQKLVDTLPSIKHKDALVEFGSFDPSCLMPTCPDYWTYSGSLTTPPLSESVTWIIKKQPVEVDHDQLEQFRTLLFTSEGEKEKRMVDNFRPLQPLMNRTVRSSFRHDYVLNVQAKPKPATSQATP
Protocol: as §1, §2, §3, §4, §5

CAXIV = molecular target: T9, CAXIV (Homo sapiens, UniProt Q9ULX7); experiment: Fluorescent thermal shift assay (FTSA), CAXIV; type: binding; conditions: FTSA, pH 7.0, 37 °C; read-out: Observed Dissociation Constant (Kd_obs), CAXIV;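 further: recombinant human CA XIV from E. coli, ANS-based thermal shift: Kd_obs fitted from melting temperature versus ligand concentration, ΔGint from Kd_obs corrected for deprotonated sulfonamide and Zn-water fractions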
T9 construct: made in house; host or cells: E. coli
T9 sequence (Q9ULX7 16-337): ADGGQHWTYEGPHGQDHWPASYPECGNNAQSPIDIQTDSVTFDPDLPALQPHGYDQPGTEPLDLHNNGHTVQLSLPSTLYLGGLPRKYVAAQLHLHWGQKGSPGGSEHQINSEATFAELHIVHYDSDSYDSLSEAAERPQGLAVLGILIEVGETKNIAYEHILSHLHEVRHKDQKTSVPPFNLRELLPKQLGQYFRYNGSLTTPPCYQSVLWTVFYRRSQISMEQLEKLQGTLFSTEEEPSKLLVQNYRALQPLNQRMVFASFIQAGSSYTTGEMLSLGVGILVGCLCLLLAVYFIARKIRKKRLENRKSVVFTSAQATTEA
Protocol: as §1, §2, §3, §4, §5

CAXII = molecular target: T10, CAXII (Homo sapiens, UniProt O43570); experiment: biochemical; type: binding; conditions: FTSA, pH 7.0, 37 °C; read-out: Observed Dissociation Constant (Kd_obs), CAXII
T10 construct: made in house; host or cells: E. coli
T10 sequence (O43570 25-354): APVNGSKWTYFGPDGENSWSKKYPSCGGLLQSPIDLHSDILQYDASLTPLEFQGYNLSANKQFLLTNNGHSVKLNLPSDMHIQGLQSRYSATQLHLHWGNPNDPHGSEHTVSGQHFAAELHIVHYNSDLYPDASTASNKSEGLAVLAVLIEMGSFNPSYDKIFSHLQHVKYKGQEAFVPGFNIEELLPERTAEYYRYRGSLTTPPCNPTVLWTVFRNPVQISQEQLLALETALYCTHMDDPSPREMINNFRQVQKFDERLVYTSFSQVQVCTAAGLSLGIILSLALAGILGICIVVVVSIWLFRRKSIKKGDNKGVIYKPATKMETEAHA
Protocol: as §1, §2, §6, §4, §5

CAI = molecular target: T11, CAI (Homo sapiens, UniProt P00915); experiment: biochemical; type: binding; conditions: FTSA, pH 7.0, 37 °C; read-out: Observed Dissociation Constant (Kd_obs), CAI
T11 construct: made in house; host or cells: E. coli
T11 sequence (P00915 whole entry): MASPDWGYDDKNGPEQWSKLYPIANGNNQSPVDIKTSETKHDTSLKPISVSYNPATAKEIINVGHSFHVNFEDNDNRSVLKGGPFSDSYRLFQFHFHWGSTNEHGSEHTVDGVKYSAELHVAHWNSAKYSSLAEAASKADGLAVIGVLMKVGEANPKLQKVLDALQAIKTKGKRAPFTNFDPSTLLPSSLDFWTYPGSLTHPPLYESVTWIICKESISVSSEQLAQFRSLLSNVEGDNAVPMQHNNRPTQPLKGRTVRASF
Protocol: as §1, §2, §6, §4, §5

[1] = read-out: Observed Dissociation Constant (Kd_obs), CAVII
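Wherever Observed Dissociation Constant (Kd obs), CAXII is given: recombinant CAXII made in E. coli, ANS-fluorescence thermal shift with affinity fitted from Tm versus ligand concentration, intrinsic energy from Kd_obs corrected for deprotonated sulfonamide and Zn-water fractions.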

T1 sequence (P07451 whole entry): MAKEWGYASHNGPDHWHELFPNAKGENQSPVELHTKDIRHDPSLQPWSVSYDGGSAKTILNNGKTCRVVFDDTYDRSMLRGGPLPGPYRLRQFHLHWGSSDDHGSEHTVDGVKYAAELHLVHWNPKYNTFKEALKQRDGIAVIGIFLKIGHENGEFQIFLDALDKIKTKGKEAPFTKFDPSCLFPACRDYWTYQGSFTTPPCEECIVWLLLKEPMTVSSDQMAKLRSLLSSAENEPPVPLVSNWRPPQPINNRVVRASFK

SMILES	Kd (CAIII) [nM]	Kd (CAXIII) [nM]	Kd (CAVI) [nM]	Kd (CAVA) [nM]	Kd (CAIV) [nM]	Kd (CAIX) [nM]	melting point [°C]	Kd (CAVII; [1]) [nM]	Kd (CAII) [nM]	Kd (CAVB) [nM]	Kd (CAXIV) [nM]	Kd (CAXII) [nM]	Kd (CAI) [nM]	Kd (CAVII; Observed Dissociation Constant (Kd_obs), CAVII) [nM]
NS(=O)(=O)c1ccc(NCC(CC(=O)NN=Cc2ccccc2)C(=O)NN=Cc2ccccc2)c(Cl)c1 (stereo not drawn) [Compound 6b, 4-((2-(2-(Benzylidene)hydrazine-1-carbonyl)-4-(2-(benzylidene)hydrazineyl)-4-oxobutyl)amino)-3-chlorobenzenesulfonamide]	≥ 200000	180	670	20000	4200	100	212 to 213	290	240	130	140	7900	1400	–
NS(=O)(=O)c1ccc(NCC(CC(=O)NN=Cc2ccc(O)cc2)C(=O)NN=Cc2ccc(O)cc2)c(Cl)c1 (stereo not drawn) [Compound 9b, 3-Chloro-4-((2-(2-(4-hydroxybenzylidene)hydrazine-1-carbonyl)-4-(2-(4-hydroxybenzylidene)hydrazineyl)-4-oxobutyl)amino)benzenesulfonamide]	≥ 200000	250	670	2900	1000	100	226 to 227	–	200	830	130	14000	670	250
NS(=O)(=O)c1ccc(NCC(CC(=O)NN=Cc2ccc(C(=O)O)cc2)C(=O)NN=Cc2ccc(C(=O)O)cc2)cc1 (stereo not drawn) [Compound 18a, 4,4′-(((2-(((4-Sulfamoylphenyl)amino)methyl)succinyl)bis(hydrazin-2-yl-1-ylidene))bis(methaneylylidene))dibenzoic acid]	≥ 200000	25000	33000	20000	33000	1400	308 to 309	6700	5000	14000	5000	20000	20000	–
NS(=O)(=O)c1ccc(NCC(CC(=O)NN=Cc2ccc(C(=O)O)cc2)C(=O)NN=Cc2ccc(C(=O)O)cc2)c(Cl)c1 (stereo not drawn) [Compound 18b, 4,4′-(((2-(((2-Chloro-4-sulfamoylphenyl)amino)methyl)succinyl)bis(hydrazin-2-yl-1-ylidene))bis(methaneylylidene))dibenzoic acid]	≥ 200000	1800	20000	6700	13000	250	294 to 295	330	1300	6700	1000	13000	5000	–
Cc1ccc(C)n1NC(=O)CC(CNc1ccc(S(N)(=O)=O)cc1Cl)C(=O)Nn1c(C)ccc1C (stereo not drawn) [Compound 19b, 2-(((2-Chloro-4-sulfamoylphenyl)amino)methyl)-N^1,N^4-bis(2,5-dimethyl-1H-pyrrol-1-yl)succinamide]	≥ 200000	130	5000	20000	1800	56	232 to 233	200	50	1400	25	1300	290	–
Cc1cc(C)n(C(=O)CC(CNc2ccc(S(N)(=O)=O)cc2Cl)C(=O)n2nc(C)cc2C)n1 (stereo not drawn) [Compound 20, 3-Chloro-4-((4-(3,5-dimethyl-1H-pyrazol-1-yl)-2-(3,5-dimethyl-1H-pyrazole-1-carbonyl)-4-oxobutyl)amino)benzenesulfonamide]	≥ 200000	2900	20000	22000	2000	100	201 to 202	10000	500	3300	330	13000	5000	–
CNC(=S)NNC(=O)CC(CNc1ccc(S(N)(=O)=O)cc1)C(=O)NNC(=S)NC (stereo not drawn) [Compound 22a, 2,2′-(2-(((4-Sulfamoylphenyl)amino)methyl)succinyl)bis(N-methylhydrazine-1-carbothioamide)]	≥ 200000	33000	13000	33000	6700	330	192 to 193	10000	2500	25000	3300	11000	50000	–
CNC(=S)NNC(=O)CC(CNc1ccc(S(N)(=O)=O)cc1Cl)C(=O)NNC(=S)NC (stereo not drawn) [Compound 22b]	≥ 200000	1700	3300	6700	2000	100	212 to 213	670	400	≥ 200000	130	2200	3300	–
NS(=O)(=O)c1ccc(NCC(CC(=O)NNC(=S)Nc2ccccc2)C(=O)NNC(=S)Nc2ccccc2)c(Cl)c1 (stereo not drawn) [Compound 23b, 2,2′-(2-(((2-Chloro-4-sulfamoylphenyl)amino)methyl)succinyl)bis(N-phenylhydrazine-1-carbothioamide)]	15000	400	1000	20000	1000	33	158 to 159	110	50	1100	50	50	67	–
NS(=O)(=O)c1ccc(NCC(Cc2n[nH]c(=S)n2-c2ccccc2)c2n[nH]c(=S)n2-c2ccccc2)c(Cl)c1 (stereo not drawn) [Compound 25b, 4-((2,3-bis(4-Phenyl-5-thioxo-4,5-dihydro-1H-1,2,4-triazol-3-yl)propyl)amino)-3-chlorobenzenesulfonamide]	5000	400	200	38000	1400	25	175 to 176	170	25	1400	25	630	170	–
Cc1csc(N(CCC(=O)NN=Cc2ccccc2)c2ccc(S(N)(=O)=O)cc2)n1 [Compound 30, 4-((3-(2-Benzylidenehydrazineyl)-3-oxopropyl)(4-methylthiazol-2-yl)amino)benzenesulfonamide]	≥ 200000	8300	67000	≥ 200000	27000	290	170 to 171	100000	4000	11000	6700	110000	3300	–
CCOC(=O)c1sc(N(CCC(=O)NN=Cc2ccccc2)c2ccc(S(N)(=O)=O)cc2)nc1C [Compound 34, Ethyl 2-((3-(2-Benzylidenehydrazineyl)-3-oxopropyl)(4-sulfamoylphenyl)amino)-4-methylthiazole-5-carboxylate]	≥ 200000	220	10000	≥ 200000	1000	170	195 to 196	250	150	120	1000	14000	670	–

— article PMC9033141, “Beta and Gamma Amino Acid-Substituted Benzenesulfonamides as Inhibitors of Human Carbonic Anhydrases” (Pharmaceuticals, 2022)
